Details: Liquid

FCF [difluoromethane]
Details	vapor or sublimation pressure [kPa]
283.19 K	1111
288.21 K	1286
293.24 K	1481
298.26 K	1697
303.27 K	1935
308.28 K	2197
313.3 K	2485
318.28 K	2801
323.3 K	3147
328.31 K	3526
343.26 K	4892

CCC [propane]
Details	vapor or sublimation pressure [kPa]
277.17 K	536
283.22 K	638
288.26 K	734
293.27 K	838
298.3 K	955
302.27 K	1055
308.8 K	1236
311.8 K	1326
313.24 K	1370
318.22 K	1537
323.22 K	1716
328.26 K	1911
333.29 K	2120
338.31 K	2346
343.26 K	2591
348.31 K	2852
353.41 K	3134

From the NIST ThermoML archive (doi:10.1021/je020115d)
